The assay has as its target T1, Epac2^Δ280 (Mus musculus, UniProt Q9EQZ6).
T1 construct: made in house
T1 sequence (Q9EQZ6 281-993 isoform Q9EQZ6-3): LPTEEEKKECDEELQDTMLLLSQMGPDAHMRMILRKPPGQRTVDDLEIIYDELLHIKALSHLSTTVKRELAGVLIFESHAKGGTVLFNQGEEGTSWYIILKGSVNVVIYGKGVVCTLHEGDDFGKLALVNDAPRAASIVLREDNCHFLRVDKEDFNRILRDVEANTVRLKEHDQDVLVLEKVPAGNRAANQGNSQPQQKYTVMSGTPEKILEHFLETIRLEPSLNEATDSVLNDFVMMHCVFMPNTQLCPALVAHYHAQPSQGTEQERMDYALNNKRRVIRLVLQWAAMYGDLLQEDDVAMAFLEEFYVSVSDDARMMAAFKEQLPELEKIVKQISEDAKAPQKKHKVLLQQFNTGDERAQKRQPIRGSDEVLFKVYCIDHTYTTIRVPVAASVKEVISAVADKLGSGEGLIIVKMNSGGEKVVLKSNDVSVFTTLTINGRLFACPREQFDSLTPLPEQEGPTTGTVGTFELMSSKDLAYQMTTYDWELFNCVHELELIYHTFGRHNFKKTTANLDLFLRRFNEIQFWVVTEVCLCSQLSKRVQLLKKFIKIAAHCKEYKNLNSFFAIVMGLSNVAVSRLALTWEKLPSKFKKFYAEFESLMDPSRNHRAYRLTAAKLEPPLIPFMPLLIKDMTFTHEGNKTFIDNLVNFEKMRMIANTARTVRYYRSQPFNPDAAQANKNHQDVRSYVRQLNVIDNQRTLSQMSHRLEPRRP
As to the kind of experiment: Epac activation assay (Rap1B•mGDP fluorescence nucleotide exchange), Epac2^Δ280. It is filed as biochemical. Conditions: for AC50 / Rel. kmax: Epac2^Δ280; for Rel. kmax: maximal activity relative to cAMP. The procedure:
Murine Epac2 was used as all previous structural studies were performed with it.
The activity of Epac was determined by a fluorescence assay. […] The fluorescence intensity of Rap1B•mGDP is approximately twice that of free mGDP, and thus, nucleotide exchange can be observed as a decay in fluorescence upon the addition of excess unlabeled GDP.

For orientation: AC50 means the concentration giving half of the maximal activity seen. Low values mean activity at low concentration, high ones activity only at high concentration. For 8-PIA-cAMP [L-019], the AC50 came to 19 µM and the Rel. kmax is reported as 3.8.
On to `Nc1ncnc2c1nc(Cl)n2[C@@H]1O[C@@H]2COP(=O)(O)O[C@H]2[C@H]1Cl` [D-006, 8,2′-DCl-cAMP], for which half-maximal activity (AC50) was put at 14 µM and the Rel. kmax was 0.7.
On the same counts, the results for `CO[C@@H]1[C@@H]2OP(=O)(O)OC[C@H]2O[C@H]1n1c(O)nc2c(N)ncnc21` [D-010, 8-OH-2′-O-Me-cAMP] are 6.8 µM and 0.5.
For `Nc1ncnc2c1nc(SCc1ccccc1)n2[C@@H]1O[C@@H]2COP(=O)(O)O[C@H]2[C@H]1F` [D-011, 8-BnT-2′-F-cAMP], in that order: 2.9 µM and 1.6.
On the same counts, the results for `CO[C@@H]1[C@@H]2OP(=O)(O)OC[C@H]2O[C@H]1n1c([Se]Cc2ccccc2)nc2c(N)ncnc21` [D-013, 8-BnSe-2′-O-Me-cAMP] are 3.6 µM and 2.3.
For `Nc1ncnc2c1nc(N)n2[C@@H]1O[C@@H]2COP(=O)(O)O[C@H]2[C@H]1O` [L-003, 8-NH2-cAMP], the AC50 is 0.2 µM and the Rel. kmax came out at 0.7.
For `[N-]=[N+]=Nc1nc2c(N)ncnc2n1[C@@H]1O[C@@H]2COP(=O)(O)O[C@H]2[C@H]1O` [L-004, 8-N3-cAMP], in that order: 0.2 µM and 0.7.
For `NCCNc1nc2c(N)ncnc2n1[C@@H]1O[C@@H]2COP(=O)(O)O[C@H]2[C@H]1O` [L-006, 8-AEA-cAMP], in that order: 1.6 µM and 0.5.
On the same counts, the results for `Nc1ncnc2c1nc(NCCO)n2[C@@H]1O[C@@H]2COP(=O)(O)O[C@H]2[C@H]1O` [L-007, 8-OHEA-cAMP] are 2.6 µM and 1.0.
`Nc1ncnc2c1nc(NCCCCO)n2[C@@H]1O[C@@H]2COP(=O)(O)O[C@H]2[C@H]1O` [L-008, 8-OHBuA-cAMP] showed a concentration at half-maximal activity (AC50) of 2.6 µM and a Rel. kmax of 1.6.
For `CCCCCCNc1nc2c(N)ncnc2n1[C@@H]1O[C@@H]2COP(=O)(O)OC2[C@@H]1O` (stereo partly drawn) [L-009, 8-HA-cAMP], in that order: 2.5 µM and 2.0.
On the same counts, the results for `NCCCCCCNc1nc2c(N)ncnc2n1[C@@H]1O[C@@H]2COP(=O)(O)O[C@H]2[C@H]1O` [L-010, 8-AHA-cAMP] are 1.2 µM and 1.8.
Compound `C=CCNc1nc2c(N)ncnc2n1[C@@H]1O[C@@H]2COP(=O)(O)O[C@H]2[C@H]1O` [L-011, 8-AllA-cAMP] displayed an AC50 of 1.9 µM and a Rel. kmax of 1.5.
For `C[C@H](O)CNc1nc2c(N)ncnc2n1[C@@H]1O[C@@H]2COP(=O)(O)O[C@H]2[C@H]1O` [L-012, 8-(S-2-OHPrA)-cAMP], in that order: 8 µM and 0.5.
On the same counts, the results for `CN(C)c1nc2c(N)ncnc2n1[C@@H]1O[C@@H]2COP(=O)(O)O[C@H]2[C@H]1O` [L-015, 8-DMeA-cAMP] are 1.4 µM and 3.6.
Turning to `CCN(CC)c1nc2c(N)ncnc2n1[C@@H]1O[C@@H]2COP(=O)(O)O[C@H]2[C@H]1O` [L-016, 8-DEA-cAMP], the AC50 stood at 9 µM and the Rel. kmax stood at 5.1.
For `Nc1ncnc2c1nc(N1CCCC1)n2[C@@H]1O[C@@H]2COP(=O)(O)O[C@H]2[C@H]1O` [L-017, 8-Pyr-cAMP], in that order: 3.9 µM and 4.4.
For `Nc1ncnc2c1nc(N1CCOCC1)n2[C@@H]1O[C@@H]2COP(=O)(O)O[C@H]2[C@H]1O` [L-020, 8-Morph-cAMP], in that order: 18 µM and 3.8.
For `COc1nc2c(N)ncnc2n1[C@@H]1O[C@@H]2COP(=O)(O)O[C@H]2[C@H]1O` [L-022, 8-MeO-cAMP], in that order: 0.6 µM and 2.0.
`Nc1ncnc2c1nc(OCc1ccccc1)n2[C@@H]1O[C@@H]2COP(=O)(O)O[C@H]2[C@H]1O` [L-023, 8-BnO-cAMP] registered an AC50 of 1.3 µM and a Rel. kmax of 1.6.
For `CSc1nc2c(N)ncnc2n1[C@@H]1O[C@@H]2COP(=O)(O)O[C@H]2[C@H]1O` [L-024, 8-MeT-cAMP], in that order: 0.14 µM and 2.0.
For `C[Se]c1nc2c(N)ncnc2n1[C@@H]1O[C@@H]2COP(=O)(O)O[C@H]2[C@H]1O` [L-027, 8-MeSe-cAMP], in that order: 0.18 µM and 1.5.
The compound `Nc1ncnc2c1nc([Se]Cc1ccccc1)n2[C@@H]1O[C@@H]2COP(=O)(O)O[C@H]2[C@H]1O` [L-028, 8-BnSe-cAMP] registered an AC50 of 0.03 µM and a Rel. kmax of 1.7.
For `O=P1(O)OCC2OC(n3cnc4c(NCc5ccccc5)ncnc43)C(O)C2O1` (stereo not drawn) [N-001, N^6-Bn-cAMP], in that order: 1.1 µM and 0.3.
In turn, `O=C(Nc1ncnc2c1ncn2[C@@H]1O[C@@H]2COP(=O)(O)O[C@H]2[C@H]1O)c1ccccc1` [N-002, N^6-Bnz-cAMP] returned an AC50 of 2.9 µM and a Rel. kmax of 0.1. Also, the “activation” value (Epac2) is listed as “inability to activate Epac2”.
In turn, `O=P1(O)OC[C@H]2O[C@@H](n3cnc4c(Nc5ccccc5)ncnc43)[C@H](O)[C@@H]2O1` [N-003, N^6-Phe-cAMP] displayed an AC50 of 0.3 µM and a Rel. kmax of 0.6.
With `Nc1ncnc2c1ncn2[C@@H]1O[C@@H]2COP(O)(=S)O[C@H]2[C@H]1O` (stereo partly drawn) [R-000, Rp-cAMPS], the concentration at half-maximal activity (AC50) was determined as 10 µM and the Rel. kmax amounted to 0.2.
For `Nc1ncnc2c1nc(Br)n2[C@H]1C[C@@H]2O[P@@](O)(=S)OC[C@H]2O1` [S-011, Sp-8-Br-2′dcAMPS], in that order: 9 µM and 0.8.
With `Nc1ncnc2c1nc(Cl)n2[C@@H]1O[C@@H]2COP(O)(=S)O[C@@H]2C1O` (stereo partly drawn) [S-020, Sp-8-Cl-cAMPS], half-maximal activity (AC50) was put at 0.4 µM and the Rel. kmax was found to be 3.8.
On the same counts, the results for `Nc1ncnc2c1nc(Cl)n2[C@@H]1O[C@@H]2CO[P@](O)(=S)O[C@H]2[C@H]1Cl` [S-021] are 12 µM and 0.5.
On the same counts, the results for `CNc1nc2c(N)ncnc2n1[C@@H]1O[C@@H]2CO[P@](O)(=S)O[C@H]2[C@H]1F` [S-032, Sp-8-MeA-2′-F-cAMPS] are 9.5 µM and 3.9.
Take `CNc1nc2c(N)ncnc2n1[C@@H]1O[C@@H]2CO[P@](O)(=S)O[C@H]2[C@H]1OC` [S-034, Sp-8-MeA-2′-O-Me-cAMPS]: the AC50 is 20 µM and the Rel. kmax is 0.7.
On the same counts, the results for `CCNc1nc2c(N)ncnc2n1[C@@H]1O[C@@H]2CO[P@](O)(=S)O[C@H]2[C@H]1O` [S-040, Sp-8-EA-cAMPS] are 1.9 µM and 5.4.
For `CC(C)Nc1nc2c(N)ncnc2n1[C@@H]1O[C@@H]2CO[P@](O)(=S)O[C@H]2[C@H]1O` [S-050, Sp-8-iPrA-cAMPS], in that order: 9 µM and 1.4.
On the same counts, the results for `CN(C)c1nc2c(N)ncnc2n1[C@@H]1O[C@@H]2CO[P@](O)(=S)O[C@H]2[C@H]1O` [S-070, Sp-8-DMeA-cAMPS] are 2.1 µM and 9.3.
Consider `CCN(C)c1nc2c(N)ncnc2n1[C@@H]1O[C@@H]2CO[P@](O)(=S)O[C@H]2[C@H]1O` [S-080, Sp-8-EMeA-cAMPS], for which the AC50 was 1.8 µM and the Rel. kmax worked out at 7.6.
In turn, `CCN(CC)c1nc2c(N)ncnc2n1[C@@H]1O[C@@H]2CO[P@](O)(=S)O[C@H]2[C@H]1O` [S-090, Sp-8-DEA-cAMPS] gave an AC50 of 10 µM and a Rel. kmax of 4.1.
For `CC(C)N(C)c1nc2c(N)ncnc2n1[C@@H]1O[C@@H]2CO[P@](O)(=S)O[C@H]2[C@H]1O` [S-100, Sp-8-iPrMeA-cAMPS], in that order: 7 µM and 4.5.
On the same counts, the results for `Nc1ncnc2c1nc(N1CCCCC1)n2[C@@H]1O[C@@H]2CO[P@](O)(=S)O[C@H]2[C@H]1O` [S-110, Sp-8-PIP-cAMPS] are 9.5 µM and 3.7.
On the same counts, the results for `COc1nc2c(N)ncnc2n1[C@@H]1O[C@@H]2CO[P@](O)(=S)O[C@H]2[C@H]1O` [S-140, Sp-8-MeO-cAMPS] are 0.7 µM and 7.3.
`Nc1ncnc2c1nc(OCc1ccccc1)n2[C@@H]1O[C@@H]2CO[P@](O)(=S)O[C@H]2[C@H]1O` [S-150, Sp-8-BnO-cAMPS] gave an AC50 of 1.3 µM and a Rel. kmax of 4.8.
On the same counts, the results for `CSc1nc2c(N)ncnc2n1[C@@H]1O[C@@H]2CO[P@](O)(=S)O[C@H]2[C@H]1O` [S-160, Sp-8-MeT-cAMPS] are 0.3 µM and 7.4.
On the same counts, the results for `CSc1nc2c(N)ncnc2n1[C@@H]1O[C@@H]2CO[P@](O)(=S)O[C@H]2[C@H]1F` [S-170, Sp-8-MeT-2′-F-cAMPS] are 6.9 µM and 2.8.

The values above are taken from PMC4300089, “Structure-Guided Design of Selective Epac1 and Epac2 Agonists” (PLoS Biology, 2015).
